Reference: patent US20240175029A1, “RNA INHIBITOR FOR INHIBITING HEPATITIS B VIRUS GENE EXPRESSION AND APPLICATION THEREOF” (priority 2021, published 2024)

What was measured:
HBV HBsAg = assay: Comparison and combined use of Ky-2208 and tenofovir (TDF) in HBV transgenic (HBV-Tg) mice, HBsAg; assay type: in vivo; conditions: Ky-2208 3 or 9 mpk sc single, TDF 15 mpk po daily, d7-d28
Experimental: Experimental procedures: 48 HBV-Tg male mice with a body weight of 25-35 g and a week age of 8-13 w, were raised in an animal room that meets the SPF standard, with a temperature of 16-26° C., a humidity of 40-70% and circulating light (12 hours in light and dark respectively), and were free to eat and drink water. The solvent for formulation of the compound was normal saline, and the concentration of the working solution was 0.75 mg/mL. […] The experiment consisted of 6 groups, including one control group ([…]) and 5 administration groups. The drug was administered once on the day of d0, and mice in each group were subcutaneously injected with 0.04 mL/10 g of the corresponding test solution on d0. Whole blood was collected through the orbital venous plexus of mice on d0 before administration and d7, d14, d21 and d28 after administration, and centrifuged at 3000×g for 5 minutes. Supernatant was sampled on d0, d7, d14, d21 and d28 to detect HBV HBsAg.

HBsAg = assay: Ky-22 combined with entecavir or interferon in HepG2.2.15 cells, HBsAg; assay type: cell-based, HBV; conditions: 72 hours, ETV 0.1-10 μM, IFN-α 10-1000 IU/mL, Ky-22 0.125 μg/mL
Experimental: (§1) The experiment was conducted in the widely used HepG2.2.15 cell line to evaluate the inhibitory effect of the RNA inhibitor of the present invention in combination with different concentrations of entecavir (ETV) or interferon (IFN-a) on HBV.
(§2) Experimental procedures: DMEM medium containing 10% fetal bovine serum was prepared. Media containing 10 nM RNA inhibitor Ky-22 was prepared from a culture medium. HepG2.2.15 cells were inoculated at a cell density of […] and cultured in the DMEM medium with 10% fetal bovine serum at 37° C. under 5% CO2 for 24 hours, added with the drug for intervention, and incubated for 72 hours. The supernatant was sampled to detect HBsAg, HBeAg and HBV DNA. The relative percentages of HBsAg, HBeAg, and HBV DNA in the sample intervention groups were calibrated by compared with the supernatant of HepG2.2.15 cells without intervention.

HBeAg = assay: Ky-22 combined with entecavir or interferon in HepG2.2.15 cells, HBeAg; assay type: cell-based, HBV; conditions: 72 hours, ETV 0.1-10 μM, IFN-α 10-1000 IU/mL, Ky-22 0.125 μg/mL
Experimental: as §1, §2

Row | Compound | reduction of HBsAg level (HBV HBsAg) | inhibitory effect on HBsAg (HBsAg) | inhibitory effect on HBeAg (HBeAg)
1 | C[C@H](Cn1cnc2c(N)ncnc21)OCP(=O)(O)O [tenofovir (TDF), tenofovir] | does not have the efficacy of reducing HBsAg level | – | –
2 | C=C1[C@H](CO)[C@@H](O)C[C@@H]1n1cnc2c(=O)[nH]c(N)nc21 [entecavir] | – | no significant inhibitory effect | no significant inhibitory effect
3 | CC(C)OC(=O)OCOP(=O)(CO[C@H](C)Cn1cnc2c(N)ncnc21)OCOC(=O)OC(C)C.O=C(O)/C=C/C(=O)O [TDF, Tenofovir] | no inhibitory effect | – | –
